Each compound was assayed against HPK1 (assay: HPK1 Lantha Binding Assay ("Lanth")). Settings: Table B1-1, read-out: HPK1 Ki (μM) (Lanth).
Procedure, shortened: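 TR-FRET tracer displacement with 2 nM GST-tagged kinase, 2 nM Eu-anti-GST antibody and 15 nM Tracer222 at 23 C. Enzyme–antibody preincubated 1 h with compound, then tracer added for 1 h; 340 nm excitation, 615/665 nm emission. Ki from Morrison fit over an 11-point 5-fold dilution.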
With Cc1cc(-c2ccccc2)ncc1-c1cc2cc(NC(=O)[C@@H]3C[C@H]3CC#N)ncc2c(N)n1 [Compound 334, (1R,2S)—N-[8-amino-6-(4-methyl-6-phenylpyridin-3-yl)-2,7-naphthyridin-3-yl]-2-(cyanomethyl)cyclopropane-1-carboxamide] the Ki was 20.4 nM.
CCc1c(-c2cnccc2C)nc(N)c2cnc(NC(=O)[C@@H]3C[C@H]3CC#N)cc12 [Compound 272, (1R,2S)—N-[8-amino-5-ethyl-6-(4-methylpyridin-3-yl)-2,7-naphthyridin-3-yl]-2-(cyanomethyl)cyclopropane-1-carboxamide] gave a Ki of 0.139 nM.
Compound CCc1ccncc1-c1cc2cc(Nc3cccc(CO)n3)ncc2c(N)n1 [Compound 83, {6-[8-amino-6-(4-ethylpyridin-3-yl)-[2,7]naphthyridin-3-ylamino]pyridin-2-yl}methanol] has a Ki of 0.3 nM.
CCc1ccncc1-c1cc2cc(NC(=O)NC(C)C)ncc2c(N)n1 [Compound 31, 1-[8-amino-6-(4-ethyl-3-pyridyl)-2,7-naphthyridin-3-yl]-3-isopropyl-urea] was tested, and the Ki was 3.9 nM.
With Cc1ccncc1-c1cc2cc(NC(=O)[C@@H]3C[C@H]3C3CCOCC3)ncc2c(N)n1 [Compound 325, (1R,2S)—N-[8-amino-6-(4-methylpyridin-3-yl)-2,7-naphthyridin-3-yl]-2-(oxan-4-yl)cyclopropane-1-carboxamide] the Ki was 3.43 nM.
Cc1ccncc1-c1cc2cc(Nc3cnn([C@@H]4CCCN(C)C4=O)c3)ncc2c(N)n1 [Compound 251, (3R)-3-(4-[[8-amino-6-(4-methylpyridin-3-yl)-2,7-naphthyridin-3-yl]amino]-1H-pyrazol-1-yl)-1-methylpiperidin-2-one] showed a Ki of 0.512 nM.
With Cc1ccncc1-c1nc(N)c2cnc(NC(=O)Nc3cnn(C)c3)cc2c1F [Compound 162, 1-[8-amino-5-fluoro-6-(4-methyl-3-pyridyl)-2,7-naphthyridin-3-yl]-3-(1-methylpyrazol-4-yl)urea] the Ki was 3.2 nM.
Work on Nc1nc(N2CCOC2=O)cc2cc(NC(=O)C3CC3)ncc12 [Compound 40, N-(8-amino-6-(2-oxooxazolidin-3-yl)-2,7-naphthyridin-3-yl)cyclopropanecarboxamide] yielded a Ki of 98 nM.
CCc1ccncc1-c1cc2cc(NC(=O)C3CC3)ncc2c(N)n1 [Compound 26, N-(8-amino-6-(4-ethylpyridin-3-yl)-2,7-naphthyridin-3-yl)cyclopropanecarboxamide] gave a Ki of 0.21 nM.
Cc1ccncc1-c1cc2cc(NC(=O)[C@H]3C[C@@H]3c3cnn(CCOCCN)c3)ncc2c(N)n1 [Compound 292, (1S,2S)—N-[8-amino-6-(4-methylpyridin-3-yl)-2,7-naphthyridin-3-yl]-2-[1-[2-(2-aminoethoxy)ethyl]-1H-pyrazol-4-yl]cyclopropane-1-carboxamide] was tested, and the Ki was 0.0417 nM.
COc1ccc(C)c(-c2cc3cc(NC(=O)C4C[C@H]4c4cnn(C)c4)ncc3c(N)n2)c1 (stereo partly drawn) [Compound 289, (1R,2R)—N-[8-amino-6-(5-methoxy-2-methylphenyl)-2,7-naphthyridin-3-yl]-2-(1-methyl-H-pyrazol-4-yl)cyclopropane-1-carboxamide] gave a Ki of 7.39 nM.
In the case of CCc1ccncc1-c1cc2cc(Nc3cnn(CCO)c3)ncc2c(N)n1 [Compound 85, 2-{4-[8-Amino-6-(4-ethylpyridin-3-yl)-[2,7]naphthyridin-3-ylamino]pyrazol-1-yl}ethanol], the Ki is reported as 1.98 nM.
Work on CCc1ccncc1-c1cc2cc(NC(=O)OCc3ccccc3)ncc2c(N)n1 [Compound 57, Benzyl 8-amino-6-(4-ethylpyridin-3-yl)-2,7-naphthyridin-3-ylcarbamate] yielded a Ki of 5.24 nM.
With Cn1cc([C@@H]2C[C@H]2C(=O)Nc2cc3cc(-c4c(F)cccc4F)nc(N)c3cn2)cn1 (stereo in doubt) [Compound 307, (1R,2R)—N-[8-amino-6-(2,6-difluorophenyl)-2,7-naphthyridin-3-yl]-2-(1-methyl-1H-pyrazol-4-yl)cyclopropane-1-carboxamide] the Ki was 0.112 nM.
Compound CCc1ccncc1-c1cc2cc(NC(=O)N(C)C)ncc2c(N)n1 [Compound 33, 3-[8-amino-6-(4-ethyl-3-pyridyl)-2,7-naphthyridin-3-yl]-1,1-dimethyl-urea] has a Ki of 34.1 nM.
With Cc1ccncc1-c1nc(N)c2cnc(NC(=O)[C@H]3C[C@@H]3c3cn[nH]c3)cc2c1F [Compound 195, (1S,2S)—N-(8-amino-5-fluoro-6-(4-methylpyridin-3-yl)-2,7-naphthyridin-3-yl)-2-(1H-pyrazol-4-yl)cyclopropane-1-carboxamide] the Ki was 0.02 nM.
Compound COCCn1cc([C@@H]2C[C@H]2C(=O)Nc2cc3cc(-c4cnccc4C)nc(N)c3cn2)cn1 [Compound 330, (1R,2R)—N-(8-amino-6-(4-methylpyridin-3-yl)-2,7-naphthyridin-3-yl)-2-(1-(2-methoxyethyl)-1H-pyrazol-4-yl)cyclopropanecarboxamide] has a Ki of less than 0.02 nM.
CCc1ccncc1-c1cc2cc(NC(=O)N[C@H]3C[C@@H](O)C3)ncc2c(N)n1 [Compound 109, 1-[8-amino-6-(4-ethyl-3-pyridyl)-2,7-naphthyridin-3-yl]-3-(cis-3-hydroxycyclobutyl)urea] gave a Ki of 1.3 nM.
With CCc1ccncc1-c1cc2cc(NC(=O)NCc3cncs3)ncc2c(N)n1 [Compound 30, 1-[8-amino-6-(4-ethyl-3-pyridyl)-2,7-naphthyridin-3-yl]-3-(thiazol-5-ylmethyl)urea] the Ki was 1.75 nM.
With Cc1cc(-c2ncco2)ncc1-c1cc2cc(NC(=O)[C@@H]3C[C@H]3c3cnn(C)c3)ncc2c(N)n1 [Compound 309, (1R,2R)—N-[8-amino-6-[4-methyl-6-(1,3-oxazol-2-yl)pyridin-3-yl]-2,7-naphthyridin-3-yl]-2-(1-methyl-1H-pyrazol-4-yl)cyclopropane-1-carboxamide] the Ki was 0.184 nM.
Cc1c(N)cncc1-c1cc2cc(NC(=O)[C@@H]3C[C@H]3C#N)ncc2c(N)n1 [Compound 199, (1R,2R)—N-(8-amino-6-(5-amino-4-methylpyridin-3-yl)-2,7-naphthyridin-3-yl)-2-cyanocyclopropane-1-carboxamide] was tested, and the Ki was 3.39 nM.
With Cc1ccncc1-c1cc2cc(Nc3cnn(C(C)(C)CO)c3)ncc2c(N)n1 [Compound 266, 2-(4-[[8-amino-6-(4-methylpyridin-3-yl)-2,7-naphthyridin-3-yl]amino]-1H-pyrazol-1-yl)-2-methylpropan-1-ol] the Ki was 0.118 nM.
Cc1ccc(C(=O)N(C)C)cc1-c1cc2cc(NC(=O)[C@H]3C[C@@H]3c3cnn(C)c3)ncc2c(N)n1 [Compound 290, 3-(1-amino-6-[[(1S,2S)-2-(1-methyl-1H-pyrazol-4-yl)cyclopropane]amido]-2,7-naphthyridin-3-yl)-N,N,4-trimethylbenzamide] was tested, and the Ki was 3.36 nM.
Cc1cc(-c2ccccc2)ncc1-c1cc2cc(NC(=O)[C@H]3C[C@@H]3CC#N)ncc2c(N)n1 [Compound 335, (1S,2R)—N-[8-amino-6-(4-methyl-6-phenylpyridin-3-yl)-2,7-naphthyridin-3-yl]-2-(cyanomethyl)cyclopropane-1-carboxamide] showed a Ki of 4.41 nM.
Cc1ccncc1-c1cc2cc(Nc3cnn([C@H]4CCCN(C)C4=O)c3)ncc2c(N)n1 [Compound 252, (3S)-3-(4-[[8-amino-6-(4-methylpyridin-3-yl)-2,7-naphthyridin-3-yl]amino]-1H-pyrazol-1-yl)-1-methylpiperidin-2-one] gave a Ki of 0.569 nM.
Cc1ccc(O)cc1-c1cc2cc(NC(=O)[C@H]3C[C@@H]3c3cnn(C)c3)ncc2c(N)n1 [Compound 286, (1S,2S)—N-[8-amino-6-(5-hydroxy-2-methylphenyl)-2,7-naphthyridin-3-yl]-2-(1-methyl-1H-pyrazol-4-yl)cyclopropane-1-carboxamide] gave a Ki of 1.82 nM.
Work on Cc1ccncc1-c1cc2cc(NC(=O)[C@H]3C[C@@H]3C(C)(C)O)ncc2c(N)n1 [Compound 242, (1S,2S)—N-[8-amino-6-(4-methylpyridin-3-yl)-2,7-naphthyridin-3-yl]-2-(2-hydroxypropan-2-yl)cyclopropane-1-carboxamide] yielded a Ki of 31.2 nM.
Cc1ccncc1-c1cc2cc(NC(=O)[C@@H]3[C@@H](C)[C@H]3c3cnn(C)c3)ncc2c(N)n1 [Compound 326, (1R,2S,3R)—N-[8-amino-6-(4-methylpyridin-3-yl)-2,7-naphthyridin-3-yl]-2-methyl-3-(1-methyl-1H-pyrazol-4-yl)cyclopropane-1-carboxamide] was tested, and the Ki was 0.074 nM.
Cc1ccncc1-c1cc2cc(NC(=O)[C@@H]3C[C@]34CCNC(=O)C4)ncc2c(N)n1 [Compound 315, (1R,3R)—N-[8-amino-6-(4-methylpyridin-3-yl)-2,7-naphthyridin-3-yl]-5-oxo-6-azaspiro[2.5]octane-1-carboxamide] was tested, and the Ki was 12.2 nM.
Compound COC(C)(C)[C@@H]1C[C@H]1C(=O)Nc1cc2cc(-c3cnccc3C)nc(N)c2cn1 [Compound 239, (1R,2R)—N-[8-amino-6-(4-methylpyridin-3-yl)-2,7-naphthyridin-3-yl]-2-(2-methoxypropan-2-yl)cyclopropane-1-carboxamide] has a Ki of 5.28 nM.

Same assay, conditions: Table B1-2, read-out: HPK1 Ki, L = Lanth
With Cc1cccc(F)c1-c1cc2cc(NC(=O)[C@@H]3[C@@H](C)[C@H]3c3cnn(C)c3)ncc2c(N)n1 [Compound 354, (1R,2S,3R)—N-[8-amino-6-(2-fluoro-6-methylphenyl)-2,7-naphthyridin-3-yl]-2-methyl-3-(1-methyl-1H-pyrazol-4-yl)cyclopropane-1-carboxamide] the Ki was 0.083 nM.
Cc1cccc(F)c1-c1cc2cc(NC(=O)[C@H]3[C@H](C)[C@@H]3c3cnn(C)c3)ncc2c(N)n1 [Compound 357, (1S,2R,3S)—N-[8-amino-6-(2-fluoro-6-methylphenyl)-2,7-naphthyridin-3-yl]-2-methyl-3-(1-methyl-1H-pyrazol-4-yl)cyclopropane-1-carboxamide] showed a Ki of 2.7 nM.
With CC1=CN(C)C(=O)Cc2nc(Nc3cc4cc(-c5cnccc5C)nc(N)c4cn3)ccc21 [Compound 418, 2-((8-amino-6-(4-methylpyridin-3-yl)-2,7-naphthyridin-3-yl)amino)-5,7-dimethyl-7,9-dihydro-8H-pyrido[2,3-d]azepin-8-one] the Ki was 1.4 nM.

Source: patent US11034692B1 (Genentech, Inc., priority 2017, dated 2021)
